Measured values reported in US20050038058A1, “Novel compounds and methods for therapy” (Institute of Organic Chemistry and Biochemistry, priority 2001, published 2005).
In brackets after ≈: the same amount, converted by molar mass. Like-named read-outs stand apart in the source and are kept apart here. Marks after values point to notes of the source that are not given here.

How the values were obtained:
[1] = system: HIV-1(IIIB); experiment: HIV-1(IIIB)-induced cytopathicity in CEM cell cultures; format: cell-based
Procedure, shortened: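 Protection against cytopathicity caused by HIV-1 strain IIIB was measured in CEM cell cultures. The IIIB stock came from supernatants of infected MT-4 cell cultures, and virus was added to the cultures at 100 CCID50. At day 4 to 5 post infection, virus-induced giant cell formation was examined microscopically, and the EC50 was derived from this.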

[2] = system: HIV-2(ROD); experiment: HIV-2(ROD)-induced cytopathicity in CEM cell cultures; format: cell-based; details: Human immunodeficiency virus 2, CCRF-CEM, read-out: EC50 HIV-2 (ROD) (CEM)
Description: (§1) Viruses. The origins of MSV, HIV type 1 (HIV-1) (strain IIIB and Ba-L), HIV-2 (strain ROD) and FIV (strain Petaluma) have been described previously (Balzarini et al., AIDS 5: 21-28, 1991; De Clercq et al., Proc. Soc. Exp. Biol. Med. 137:590-594, 1971; Egberink et al., Proc. Natl. Acad. Sci. 87:3087-3091, 1990; Hartmann et al., Antiviral Chem. Chemother. 5:13-19, 1994; Popovic et al., Science 224:497-500, 1984). HIV-1(IIIB) and HIV-2(ROD) stocks were obtained from supernatants of virus-infected MT-4 cell cultures. HIV-1BaL was expanded in human primary M/M, whose supernatants were collected, filtered and stored at −80° C. before use. Characteristics of viral stocks used for this study were 2.1×10^8 HIV-RNA genomes/ml (corresponding to 35 ng of p24 antigen) and 5,000 tissue culture infectious doses 50% per ml (TCID50/ml) as assessed by virus titration in other primary M/M cultures. The isolation and characterization of the clinical HIV-1 isolates L1S, L6S and L6S/PMEA has been reported (Thormar et al., Proc. Natl. Acad. Sci. USA 93:3283-3287, 1995; Van Laethem et al., AIDS 15:553-561, 2001). […] HIV-1/L6S/PMEA is the clinical isolate HIV-1/L6S that has been isolated after culturing the virus for 11 passages in the presence of increasing concentrations of PMEA (adefovir).
(§2) In vitro antiviral assays. The activity against HIV-1- and HIV-2-induced cytopathicity was examined in MT-4 cell cultures at day 5 post infection and based on the determination of cell viability by trypan blue dye staining or in CEM cell cultures at day 4 to 5 post infection and based on the microscopical examination of virus-induced giant cell formation. HIV-1 and HIV-2 were added at 100 CCID50 to the cell cultures.

[3] = system: HIV-1(IIIB); experiment: HIV-1(IIIB)-induced cytopathicity in MT-4 cell cultures; format: cell-based; details: Human immunodeficiency virus 1, IIIB, MT4; Table 2
Description: as §1, §2

[4] = system: HIV-1(IIIB); experiment: HIV-1(IIIB) p24 antigen production in PBL (PHA-stimulated PBMC); format: cell-based; details: Human immunodeficiency virus 1, IIIB, PBMC
Experimental: Peripheral blood mononuclear cells (PBMC) from healthy donors were isolated by density centrifugation (Lymphoprep; Nycomed Pharma, AS Diagnostics, Oslo, Norway) and stimulated with phytohemagglutin (PHA) (Sigma Chemical Co., Bornem, Belgium) for 3 days. The activated cells (PHA-stimulated blasts) were washed with PBS and viral infections were done as described by the AIDS clinical trial group protocols. Briefly, PBMCs (2×10^5/200 well) were plated in the presence of serial dilutions of the test compound and were infected with HIV stocks at 1000 CCID50 per mL. At day 4 post-infection, 125 μl of the supernatant of the infected cultures was removed and replaced with 150 μl of fresh medium containing the test compounds at the appropriate concentrations. At 7 days after plating the cells, p24 antigen was detected in the culture supernatant by an enzyme-linked immunosorbent assay (NEN, Paris, France).

[5] = system: MSV; experiment: MSV-induced transformation of murine embryo fibroblast C3H/3T3 cell cultures; format: cell-based; details: Mus musculus
Experimental: The inhibitory effect of the test compounds on MSV-induced transformation of murine embryo fibroblast C3H/3T3 cell cultures was examined microscopically at day 6 post infection. MSV was added at 75 focus-forming units to the cell cultures. The detailed procedures for the antiretroviral evaluations has been described in detail before (Balzarini et al., AIDS 5:21-28, 1991; Balzarini et al., Antimicrob. Agents Chemother. 37:332-338, 1993; De Clercq et al., Proc. Soc. Exp. Biol. Med. 137:590-594, 1971).

[6] = Inhibition of CEM cell growth (cytostatic activity); format: cell-based; details: human, CEM cells
Procedure, shortened: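 MT-4 cells (5×10^4/well) exposed to compound dilutions for 5 days at 37 °C; CC50 = concentration cutting living cells by 50%, counted microscopically with trypan blue exclusion. CEM cytostatic CC50 defined likewise, by a previously described method.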

[7] = Toxicity in CrFK cells; format: cell-based, feline; details: cat, CrFK cells; Table 2
[8] = Alteration of C3H cell morphology (minimal inhibitory concentration); format: cell-based, murine; details: mouse, C3H/3T3 embryo fibroblast cells; microscopically visible alteration of cell morphology; > means no visible toxicity at the indicated concentration; read-out: CC50 C3H (minimal inhibitory concentration)
[9] = system: C3H cells; experiment: as above; format: cell-based, murine; details: Table 2, footnote c
[10] = system: MSV; format: in vivo; details: for Number of Mice not Developing a Tumor (percent): intraperitoneal, 5 daily doses, newborn NMRI mice
[11] = system: HIV-1/L1S; format: cell-based; details: measured against the laboratory HIV-1/IIIB strain in CEM cell cultures
Description: as §1, §2

[12] = system: HIV-1/L6S/PMEA; format: cell-based; details: measured against the laboratory HIV-1/IIIB strain in CEM cell cultures
Description: as §1, §2

[13] = system: HIV-1/L6S; format: cell-based; details: measured against the laboratory HIV-1/IIIB strain in CEM cell cultures
Description: as §1, §2

[14] = system: HIV-1(IIIB) strains containing L100I, K103N, Y181C and Y188H mutations in the RT; experiment: HIV-1(IIIB) strains with NNRTI-specific RT mutations in CEM cell cultures; format: cell-based; details: data not shown
Experimental: as §2

[15] = system: HIV; experiment: Anti-HIV activity across HIV-1 and HIV-2 in CEM and MT-4 cell cultures; format: cell-based; details: Human immunodeficiency virus 1, MT4; HIV-1 and HIV-2 in CEM and MT-4 cells; read-out: EC50 values for HIV (range over virus/cell systems)
Experimental: as §2

## Nc1cc(OCCOCP(=O)(O)O)nc(N)n1 [Compound 1, 2,4-diamino-6-[2-(phosphonomethoxy)ethoxy]pyrimidine]
[1]; Human immunodeficiency virus 1, CCRF-CEM, HIV-1 (IIIB) in CEM, no addition, Table 3, read-out: EC50 as such
  EC50: 0.77 ± 0.25 µg/mL (≈ 2.91 µM)
[1]; Human immunodeficiency virus 1, CCRF-CEM, HIV-1 (IIIB) in CEM, Ade 100 μM, read-out: EC50 upon addition of Ade (100 μM)
  EC50: 0.26 ± 0.16 µg/mL (≈ 0.984 µM)
[1]; Human immunodeficiency virus 1, CCRF-CEM, HIV-1 (IIIB) in CEM, Ado 400 μM, read-out: EC50 upon addition of Ado (400 μM)
  EC50: 0.63 ± 0.29 µg/mL (≈ 2.38 µM)
[1]; Human immunodeficiency virus 1, CCRF-CEM, HIV-1 (IIIB) in CEM, Guo 10 μM, read-out: EC50 upon addition of Guo (10 μM)
  EC50: 0.65 ± 0.21 µg/mL (≈ 2.46 µM)
[1]; Human immunodeficiency virus 1, CCRF-CEM, HIV-1 (IIIB) in CEM, dCyd 1 mM, read-out: EC50 upon addition of dCyd (1 mM)
  EC50: 0.55 ± 0.35 µg/mL (≈ 2.08 µM)
[1]; Human immunodeficiency virus 1, CCRF-CEM, HIV-1 (IIIB) in CEM, dThd 10 μM, read-out: EC50 upon addition of dThd (10 μM)
  EC50: 0.35 ± 0.07 µg/mL (≈ 1.32 µM)
[1]; Human immunodeficiency virus 1, CCRF-CEM, HIV-1(IIIB)-induced cytopathicity in CEM cell cultures, Table 1, read-out: EC50 HIV-1 (CEM)
  EC50: 0.8 µg/mL (≈ 3.03 µM)
[1]; Human immunodeficiency virus 1, IIIB, CCRF-CEM, giant cell formation, mean ±SD of 2 to 4 experiments, Table 2, read-out: EC50 HIV-1 (IIIB) (CEM)
  EC50: 0.9 ± 0.4 µg/mL (≈ 3.41 µM)
[2]
  EC50: 0.66 ± 0.19 µg/mL (≈ 2.5 µM)
[3]
  EC50: 0.34 ± 0.03 µg/mL (≈ 1.29 µM)
[4]; p24 antigen production, Table 2, read-out: EC50 HIV-1 (IIIB) (PBL)
  EC50: 0.07 ± 0.02 µg/mL (≈ 0.265 µM)
[4]; read-out: EC50 HIV-1(IIIB) in PBL
  EC50: 0.07 µg/mL (≈ 0.265 µM)
[5]; C3H, read-out: EC50 against MSV-induced C3H cell transformation
  EC50: 0.05 to 0.15 µg/mL (≈ 0.189 to 0.568 µM)
[5]; MSV-induced C3H cell transformation, Table 2, read-out: EC50 MSV (C3H)
  EC50: 0.16 ± 0.04 µg/mL (≈ 0.606 µM)
[6]; 50% cytostatic concentration, CEM cell proliferation, Table 1, read-out: CC50 (CEM)
  CC50: 11 µg/mL (≈ 41.6 µM)
[6]; inhibition of cell proliferation, Table 2, read-out: CC50 CEM
  CC50: 11 ± 2 µg/mL (≈ 41.6 µM)
[6]; read-out: CC50 for CEM cells
  CC50: 11 µg/mL (≈ 41.6 µM)
[7]
  CC50: 11 µg/mL (≈ 41.6 µM)
[8]
  Minimal concentration causing visible cell morphology alteration: > 40 µg/mL
[9]
  Compound concentration at which morphological toxicity was observed, C3H (value between parentheses): 200 μg/ml
[10]; 2 mg/kg
  Number of Long-Term Survivors (%) (>30 days): 15%
  Number of Mice not Developing a Tumor (percent): 5%
[10]; 8 mg/kg
  Number of Long-Term Survivors (%) (>30 days): 89%
  Number of Mice not Developing a Tumor (percent): 44%
[10]; 20 mg/kg
  Number of Mice not Developing a Tumor (percent): 80%
[10]; 20 mg/kg, premature death not taken into account
  Number of Long-Term Survivors (%) (>30 days): 100%
[10]; 50 mg/kg
  Number of Mice not Developing a Tumor (percent): 84%
[10]; 50 mg/kg, premature death not taken into account
  Number of Long-Term Survivors (%) (>30 days): 100^b %
[10]; 50 and 20 mg/kg
  Mice protected from tumor formation: At least 80%
[11]
  -Fold Resistance HIV-1/L1S: 0.8 fold
[12]
  -Fold Resistance HIV-1/L6S/PMEA: 3.6 fold
[13]
  -Fold Resistance HIV-1/L6S: 1.5 fold
[14]
  Activity against NNRTI-specific mutant virus strains, in words: retained full activity
[15]
  EC50: 0.29 to 0.8 µg/mL (≈ 1.1 to 3.03 µM)
